# In patent US20060069132A1, “Azolecarboxamide herbicides” (priority 2004, published 2006):
# Tests used:
# wheat = assay: Test B postemergence herbicide test; format: in vivo, Triticum aestivum; parameters: key to Wheat plant response rating: 0 = no effect, 100 = complete control; settings: postemergence
# In short: (§1)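 Plants grow to 1- to 4-leaf stage (2–18 cm) for postemergence spraying, or to 2-leaf stage for the paddy test. Formulated compound is applied. Greenhouse holding lasts 13–15 days. Response is scored visually relative to controls, 0 no effect to 100 complete control; a dash means no result.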
# ducksalad [1] = assay: Test C flooded paddy test; format: in vivo, Heteranthera limosa
# pigweed = assay: Test B pre-/postemergence herbicide test; format: in vivo, Amaranthus retroflexus; settings: for Pigweed plant response rating: postemergence
# In short: (§2)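 Evaluation is visual, comparing treated with control plants on a scale where 0 means no effect and 100 means full control. Treatments were preemergence, or postemergence on seedlings 2–18 cm tall, and held 13–15 days in the greenhouse.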
# giant foxtail = assay: Test B pre-/postemergence herbicide test; format: in vivo, Setaria faberi; settings: for Foxtail, Giant plant response rating: postemergence
# In short: as §2
# Surinam grass = assay: Test B pre-/postemergence herbicide test; format: in vivo, Urochloa decumbens; settings: for Surinam Grass plant response rating: postemergence
# In short: as §2
# corn = assay: Test B pre-/postemergence herbicide test; format: in vivo, Zea mays; settings: for Corn plant response rating: postemergence
# In short: as §2
# morningglory = assay: Test B pre-/postemergence herbicide test; format: in vivo, Ipomoea coccinea; settings: for Morningglory plant response rating: postemergence
# In short: (§3)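 Plants compared with untreated controls 13–15 days post-treatment and given a visual 0–100 injury score. Applications: preemergence to seeds; postemergence at 1- to 4-leaf (2–18 cm); paddy species flooded, 2-leaf stage. Vehicle non-phytotoxic, surfactant included.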
# blackgrass = assay: Test B postemergence herbicide test; format: in vivo, Alopecurus myosuroides; settings: postemergence, visual rating, scale 0 (no effect) to 100 (complete control)
# In short: (§4)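 Formulated test chemicals went onto postemergence plants measuring 2 to 18 cm, at one to four leaves. For the paddy assay, species had reached two leaves. Scoring took place 13–15 days later by eye, relative to untreated plants, using 0 for no effect up to 100 for full control.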
# barnyardgrass [2] = assay: Test B flooded paddy test; format: in vivo, Echinochloa crus-galli; settings: 1000 g ai/ha, scale 0 to 100 (0 no effect, 100 complete control)
# In short: as §4
# rice [3] = assay: Test B flooded paddy test; format: in vivo, Oryza sativa; settings: 1000 g ai/ha, scale 0 to 100 (0 no effect, 100 complete control)
# In short: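 Each value is a visual 0–100 response rating taken against controls 13 to 15 days after treatment in the greenhouse. Plants received formulated chemical postemergence at the 1- to 4-leaf stage or, in flooded paddy, at the 2-leaf stage.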
# large crabgrass = assay: Test B pre-/postemergence herbicide test; format: in vivo, Digitaria sanguinalis; settings: for Crabgrass, Large plant response rating: postemergence
# In short: as §2
# [4] = test system: smallflower umbrella sedge; assay: Test C flooded paddy test; format: in vivo, Cyperus difformis
# barnyardgrass [5] = assay: Test B pre-/postemergence herbicide test; format: in vivo, Echinochloa crus-galli; settings: for Barnyardgrass plant response rating: postemergence, scale 0 (no effect) to 100 (complete control)
# In short: as §3
# barnyardgrass [6] = assay: Test C flooded paddy test; format: in vivo, Echinochloa crus-galli
# In short: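 Visual rating, 0 (no effect) to 100 (complete control), vs. controls at 12–14 d in greenhouse. Postemergence: 1–4-leaf plants, 2–18 cm. Paddy: flooded, barnyardgrass at 2-leaf stage.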
# rice [7] = assay: Test C flooded paddy test; format: in vivo, Oryza sativa
# In short: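 Injury scored visually against controls on a 0 (no effect) to 100 (complete control) scale, 12 to 14 days after treatment in greenhouse. Flooded paddy plants treated at 2-leaf stage; postemergence plants at 1- to 4-leaf stage, 2 to 18 cm tall.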
# wild oat = assay: Test B postemergence herbicide test; format: in vivo, Avena fatua; settings: postemergence
# In short: as §1
# lambsquarters = assay: Test B pre-/postemergence herbicide test; format: in vivo, Chenopodium album; settings: for Lambsquarters plant response rating: postemergence
# In short: as §2
# velvetleaf = assay: Test B pre-/postemergence herbicide test; format: in vivo, Abutilon theophrasti; settings: for Velvetleaf plant response rating: postemergence
# In short: as §2
# rice [8] = assay: Test B pre-/postemergence herbicide test; format: in vivo, Oryza sativa; settings: 0 = no effect, 100 = complete control, preemergence
# In short: as §3
# ducksalad [9] = assay: Test B flooded paddy test; format: in vivo, Heteranthera limosa; settings: 1000 g ai/ha, scale 0 to 100 (0 no effect, 100 complete control)
# In short: as §4
# cocklebur = assay: Test B pre-/postemergence herbicide test; format: in vivo, Xanthium strumarium; settings: for Cocklebur plant response rating: postemergence, scale 0 (no effect) to 100 (complete control)
# In short: as §3
# [10] = test system: small flower umbrella sedge; assay: Test B flooded paddy test; format: in vivo, Cyperus difformis; settings: 1000 g ai/ha, scale 0 to 100 (0 no effect, 100 complete control)
# In short: as §4
# [11] = 125 g ai/ha, visual rating, scale 0 (no effect) to 100 (complete control)
# [12] = 500 g ai/ha, scale 0 to 100, 0 is no effect, 100 is complete control
# [13] = 62 g ai/ha, scale 0 to 100 (0 no effect, 100 complete control)
# [14] = 125 g ai/ha, scale 0 to 100 (0 no effect, 100 complete control)
# [15] = 250 g ai/ha, scale of 0 to 100, 0 is no effect, 100 is complete control
# [16] = 500 g ai/ha, visual rating after 12 to 14 days, scale 0 to 100 (0 no effect, 100 complete control)
# [17] = 125 g ai/ha, 0 = no effect, 100 = complete control, preemergence
# [18] = 500 g ai/ha, visual rating, 0 = no effect, 100 = complete control, preemergence
structure (smiles),measurement,setting,value
CCn1nc(C(C)(C)C)cc1C(=O)Nc1cccc(C(=O)N2CCCC2)n1 [Compound 245],Wheat plant response rating,wheat; [11],10
same,Wheat plant response rating,wheat; [12],20
same,Ducksalad plant response rating,ducksalad [1]; [13],60
same,Ducksalad plant response rating,ducksalad [1]; [14],75
same,Ducksalad plant response rating,ducksalad [1]; [15],75
same,"Plant response rating, Ducksalad",ducksalad [1]; [16],75
same,Pigweed plant response rating (0 to 100 scale),pigweed; [17],100
same,"Plant response rating, Pigweed",pigweed; [18],100
same,Pigweed plant response rating,pigweed; [11],60
same,Pigweed plant response rating,pigweed; [12],80
same,"Foxtail, Giant plant response rating (0 to 100 scale)",giant foxtail; [17],60
same,"Plant response rating, Foxtail, Giant",giant foxtail; [18],90
same,"Foxtail, Giant plant response rating",giant foxtail; [11],30
same,"Foxtail, Giant plant response rating",giant foxtail; [12],60
same,Surinam Grass plant response rating (0 to 100 scale),Surinam grass; [17],40
same,"Plant response rating, Surinam Grass",Surinam grass; [18],80
same,Surinam Grass plant response rating,Surinam grass; [11],30
same,Surinam Grass plant response rating,Surinam grass; [12],60
same,Corn plant response rating (0 to 100 scale),corn; [17],0
same,"Plant response rating, Corn",corn; [18],10
same,Corn plant response rating,corn; [11],10
same,Corn plant response rating,corn; [12],30
same,Morningglory plant response rating (0 to 100 scale),morningglory; [17],10
same,"Plant response rating, Morningglory",morningglory; [18],20
same,Morningglory plant response rating,morningglory; [11],10
same,Morningglory plant response rating,morningglory; [12],60
same,Blackgrass plant response rating,blackgrass; 125 g ai/ha,0
same,Blackgrass plant response rating,blackgrass; 500 g ai/ha,0
same,Barnyardgrass plant response rating,barnyardgrass [2],90
same,Rice plant response rating,rice [3],80
same,"Crabgrass, Large plant response rating (0 to 100 scale)",large crabgrass; [17],60
same,"Plant response rating, Crabgrass, Large",large crabgrass; [18],100
same,"Crabgrass, Large plant response rating",large crabgrass; [11],10
same,"Crabgrass, Large plant response rating",large crabgrass; [12],50
same,"Sedge, Umbrella plant response rating",[4]; [13],55
same,"Sedge, Umbrella plant response rating",[4]; [14],70
same,"Sedge, Umbrella plant response rating",[4]; [15],70
same,"Plant response rating, Sedge, Umbrella",[4]; [16],70
same,Barnyardgrass plant response rating (0 to 100 scale),barnyardgrass [5]; [17],70
same,"Plant response rating, Barnyardgrass",barnyardgrass [5]; [18],100
same,Barnyardgrass plant response rating,"barnyardgrass [5]; 125 g ai/ha, visual rating",40
same,Barnyardgrass plant response rating,"barnyardgrass [5]; 500 g ai/ha, visual rating",70
same,Barnyardgrass plant response rating,barnyardgrass [6]; [13],0
same,Barnyardgrass plant response rating,barnyardgrass [6]; [14],35
same,Barnyardgrass plant response rating,barnyardgrass [6]; [15],45
same,"Plant response rating, Barnyardgrass",barnyardgrass [6]; [16],70
same,Rice plant response rating,rice [7]; [13],25
same,Rice plant response rating,rice [7]; [14],65
same,Rice plant response rating,rice [7]; [15],70
same,"Plant response rating, Rice",rice [7]; [16],70
same,"Oat, Wild plant response rating",wild oat; [11],20
same,"Oat, Wild plant response rating",wild oat; [12],30
same,Lambsquarters plant response rating (0 to 100 scale),lambsquarters; [17],90
same,"Plant response rating, Lambsquarters",lambsquarters; [18],100
same,Lambsquarters plant response rating,lambsquarters; [11],80
same,Lambsquarters plant response rating,lambsquarters; [12],90
same,Velvetleaf plant response rating (0 to 100 scale),velvetleaf; [17],40
same,"Plant response rating, Velvetleaf",velvetleaf; [18],90
same,Velvetleaf plant response rating,velvetleaf; [11],70
same,Velvetleaf plant response rating,velvetleaf; [12],80
same,Rice plant response rating (0 to 100 scale),rice [8]; 125 g ai/ha,20
same,"Plant response rating, Rice","rice [8]; 500 g ai/ha, visual rating",50
same,Ducksalad plant response rating,ducksalad [9],80
same,Cocklebur plant response rating (0 to 100 scale),cocklebur; [17],0
same,"Plant response rating, Cocklebur",cocklebur; [18],0
same,Cocklebur plant response rating,"cocklebur; 125 g ai/ha, visual rating",40
same,Cocklebur plant response rating,"cocklebur; 500 g ai/ha, visual rating",80
same,"Sedge, Umbrella plant response rating",[10],50
